# From patent US5422373A, “Anti-atherosclerotic aryl compounds” (Burroughs Wellcome Co., priority 1990, dated 1995)
# What was measured:
# ACAT = target: T1, ACAT (Rattus norvegicus, UniProt Q7TQM4); assay: In vitro assay for the inhibition of ACAT activity; assay type: biochemical; conditions: hepatic microsomes of cholesterol/cholic acid fed male CD rats; [14C]oleoyl-CoA 25 μM
# T1 construct: using hepatic microsomes as the source of both ACAT and cholesterol; from tissue; host or cells: liver microsomes of male CD rats fed a 0.8% cholesterol/0.2% cholic acid diet
# T1 sequence (Q7TQM4 1-524): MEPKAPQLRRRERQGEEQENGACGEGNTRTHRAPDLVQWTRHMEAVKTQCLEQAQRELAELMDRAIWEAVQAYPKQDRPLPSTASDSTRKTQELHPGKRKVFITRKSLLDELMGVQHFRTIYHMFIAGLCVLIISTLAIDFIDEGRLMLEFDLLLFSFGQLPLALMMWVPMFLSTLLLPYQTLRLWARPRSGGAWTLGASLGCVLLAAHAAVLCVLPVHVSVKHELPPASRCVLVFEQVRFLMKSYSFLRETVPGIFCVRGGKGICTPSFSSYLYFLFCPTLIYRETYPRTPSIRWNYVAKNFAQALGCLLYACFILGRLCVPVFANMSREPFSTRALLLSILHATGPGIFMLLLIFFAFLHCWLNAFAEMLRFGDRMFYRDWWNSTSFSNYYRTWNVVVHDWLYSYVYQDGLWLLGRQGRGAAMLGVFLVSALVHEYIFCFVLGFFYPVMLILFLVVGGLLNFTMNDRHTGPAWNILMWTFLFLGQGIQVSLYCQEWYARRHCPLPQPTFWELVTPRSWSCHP
# Experimental: (i) In vitro assay for the inhibition of ACAT activity
# ACAT activity was determined as described by Ross et al by the incorporation of [^14 C]oleoyl-CoA into cholesterol [^14 C]oleate using hepatic microsomes as the source of both ACAT and cholesterol. Microsomes were prepared from the livers of male CD rats fed a 0.8% cholesterol/0.2% cholic acid diet 3.5 days before sacrifice. Various concentrations of a test compound were preincubated with a 0.5mg/ml microsomal suspension and after 15 minutes a 50 μg aliquot was removed and incubated with 25 μM of [^14 C]-enriched oleoyl-CoA for 4 minutes. The reaction was terminated by the addition of 1 ml of ethanol and 4ml of hexane. After shaking, the hexane layer was removed and evaporated to dryness. The hexane extract was then reconstituted in 150 μl of HPLC solvent and injected on to a B&J OD5 Reverse Phase C18 column using an isocratic mobile phase of acetonitrile: isopropanol:heptane (50:40:10) in 0.5% acetic acid at a flow rate of 1.0 ml/min. The product of the reaction, [14C]oleoyl cholesterol, was measured using a Flow One radiometric detector.
# The ACAT IC50 value for each compound was determined from a plot of % inhibition from control vs inhibitor concentration.
# [1] = tested on: cholesterol-cholic acid fed rats; assay: Determination of hypolipidaemic activity in cholesterol-cholic acid fed rats; assay type: in vivo, rat; conditions: male Sprague-Dawley rats on 0.4% cholesterol, 0.2% cholic acid diet, serum on fourth day
# Excerpt: (ii) Determination of hypolipidaemic activity in cholesterol-cholic acid fed rats
# Male Sprague-Dawley rats (CD, Charles River) each weighing 200-300 g were used. Hypercholesterolemia was induced in the rats by administration of a diet enriched to 0.4% cholesterol, 0.2% cholic acid. Prior to the administration of the diet, blood samples were collected under halothane anesthesia by cardiac puncture to determine baseline lipid levels. The blood was allowed to clot and serum was obtained for the analysis of total cholesterol, dextran-precipitable lipoproteins cholesterol (VLDL +LDL) and total triglycerides. The rats were divided into groups so that each group had similar average baseline serum lipid levels. Five days after the initial blood sampling, administration of each test compound and the cholesterol-cholic acid-enriched diet was begun. Compounds to be tested by gavage were administered b.i.d. in 0.5% methyl cellulose at 9:00 a.m. and 3:00 p.m. for three days and at 9:00 a.m. on the fourth day. Compounds administered as part of the diet were dissolved in ethanol and sprayed on to the diet. The ethanol was allowed to evaporate and the diet given to the rats for three days. On the fourth day, blood samples were collected and the final serum lipid levels determined. All blood samplings were taken after a four-hour fast. […]
structure (smiles),measurement,setting,value
CCCCCCCN(Cc1ccc(OCC(OC)OC)cc1)C(=O)Nc1ccc(OC)cc1OC [Synthetic Example 1],IC50,ACAT,27 nM
same,reduction of LDL-cholesterol,[1]; dose of 25 mg/kg,78%
same,reduction of LDL-cholesterol,[1]; dose of 50 mg/kg,92%
